From a melting point compilation (Tetko et al.; mined from patent text by program, amines drawn as free bases though some values may be those of a salt)

Row | melting point [°C] | SMILES
1 | 115 to 117 | CC(CCCS(C)(=O)=O)C(c1cc(F)ccc1F)S(=O)(=O)c1ccc(Cl)cc1 (stereo unspecified)
2 | 153 to 154 | CC1(C)Cc2cccc(Oc3c(Cl)cc(NC(=S)NC(=O)c4c(F)cccc4F)cc3Cl)c2O1
3 | 80 | CCN(CC)C(=O)CCc1nc(-c2ccccc2)nc2c(C)cccc12
4 | 110 to 112 | O=[N+]([O-])c1sc(-c2cccnc2)nc1Cl
5 | 80 | CCOC(=O)c1cc(Cl)ccc1N
6 | 107 to 109 | C#CCn1c(-c2cc(Cl)nc(Cl)c2)nn(C(C)(C)C)c1=O
7 | 126 | CCCCCCCCOC(=O)Oc1ccc(C(=O)O)cc1
8 | 148 | O=S(c1cn(-c2c(Cl)cc(C(F)(F)F)cc2Cl)c(Cl)n1)C(F)(F)F (stereo unspecified)
9 | 45 to 47 | COc1c(F)c(N)cc(F)c1F
10 | 141 to 142 | CCn1c(C)nc2cc(C(F)(F)F)c(N(C)C)c(N)c21
11 | 128 to 129 | O=[N+]([O-])c1ccc(OCCN2CCN(c3cc(Cl)nnc3Cl)CC2)cc1
12 | 102 to 103 | CC(C)c1nn(-c2ccc(C(F)(F)F)cn2)cc1CCCOc1cccc(CCC(=O)O)c1
13 | 210 to 212 | CC(C)(C)C(=O)OCn1nnc(-c2cc(Br)ccc2NC(=O)c2cccc(S(=O)(=O)N3CCOCC3)c2)n1
14 | 97 to 99 | O=C(O)C(=O)c1ccc(OCC#Cc2ccccc2)cc1
15 | > 260 | O=C(O)c1ccc2c(c1)C=CC(=CCl)CO2
16 | 97 to 98 | C(=C\c1nc(COc2ccc(CCCn3ncnn3)cc2)co1)/c1ccccc1
17 | 219 to 221 | COc1ccc(-c2cc3c(n2-c2ccc(O)c(C(=O)O)c2)CCCC3)cc1
18 | 104 to 107 | CC1(C)CCC(C)(C)N1CC(O)COc1cc2ccccc2c(=O)c2ccsc12 (stereo unspecified)
19 | 81 to 82 | NCCCCCCNc1nsc2nccn12
20 | 64.5 to 66 | O=C(Cl)C=Cc1c(Cl)cccc1Cl
21 | 153 to 154 | CC(C)(Oc1ccc(CCC(=O)c2ccc(-c3ccc(C(F)(F)F)cc3)s2)c(Cl)c1Cl)C(=O)O
22 | 142 to 143 | CCOC(=O)c1cnc(-c2ccccc2)nc1OCc1ccc(OCc2nc(-c3ccco3)oc2C)c(OC)c1
23 | 147 to 150 | N#Cc1ccnc(C=Cc2ccccc2)n1
24 | 141 to 144 | CN(C)C(=O)Nc1ccc2c(c1)C(CN1CCC(c3ccc(F)cc3)CC1)CC2 (stereo unspecified)
25 | 144 to 145 | Cc1cccc(-c2ccccc2)c1NC(=N)N(C)C

Row | melting point [°C] | SMILES
26 | 185 to 187 | CC(C)(C)c1cccc2c1C(=O)NS2(=O)=O
27 | 100 to 111 | c1ccc(OCc2ccc(OCc3ccc4ccccc4n3)cc2)cc1
28 | 176 to 177 | N=C(N)NCCCCOc1ccc2c(c1)NC(=O)C(CCC(=O)O)C2 (stereo unspecified)
29 | 169 to 171 | COC(=O)c1cc(-c2ccc(S(C)(=O)=O)cc2)n(-c2ccc(Cl)cc2)n1
30 | 197 to 198 | O=C1NCC=NN1c1cc(C(F)(F)F)cc(Cl)n1
31 | 77 to 78 | CN(C)c1ccc(C2CCc3ccccc3O2)cc1 (stereo unspecified)
32 | 90 to 91 | COC(=O)c1cc2c(C)ccc(C)c2n1OC
33 | 212 to 214 | O=C(NC(=S)NC1CCN(Cc2ccc3ccccc3c2)CC1)c1ccccc1
34 | 146 to 147 | Cc1c(-c2cc(F)ccc2F)[nH]c(N)c1C#N
35 | 143 to 145 | O=C(C=Cc1cccnc1)NCCCCC1CCN(C(c2ccccc2)C2CCCCC2)CC1 (stereo unspecified)
36 | 179 to 180 | CCCCOc1ccc(-c2ccc([C@@]3(CC(=O)O)CCCCS3(=O)=O)s2)cc1
37 | 127 to 129 | COC(=O)c1ccc(F)c(S(N)(=O)=O)c1
38 | 257 to 258 | CCOC(=O)c1cn2c3c(c(F)c(F)cc3c1=O)OCC2C (stereo unspecified)
39 | 120 to 122 | Nc1ncnc2c1c(-c1cccc(O)c1)cn2-c1cccc(OCCCn2ccnc2)c1
40 | 133 to 134 | Nc1sc2c(c1C(=O)c1cccs1)CCC2
41 | > 260 | Cn1c(C(N)=O)c(-c2ccc(NC(=O)Nc3cc(C(F)(F)F)ccc3F)cc2)c2ccccc21
42 | 140 to 141 | CCOC(=O)CC(=O)c1cc(F)c(S(=O)(=O)c2ccccc2)nc1Nc1ccc(F)cc1F
43 | 242 | Cc1ccc(-c2cc(=S)ss2)nn1
44 | 159 to 162 | Cc1ccccc1-n1c(=O)nc(N(C)C)n(C)c1=O
45 | 126 | CC(C)(C)c1cc(C=O)cc(Br)c1O
46 | 107 to 110 | CCCCCN1C(=O)C2(COc3cc(-c4ccncc4)ccc32)c2ccccc21 (stereo unspecified)
47 | > 300 | O=C(O)c1[nH]c(=O)[nH]c(=O)c1[N+](=O)[O-]
48 | 161 | CC(=O)OC1CSC(Oc2cccnc2Br)C(OC(C)=O)C1OC(C)=O (stereo unspecified)
49 | 148 to 151 | O=C(N[C@H]1CN(C(=O)N2CCC[C@H]2C(=O)O)C1=O)c1ccccc1
50 | 77 to 79 | Cc1cnc2c(c1)nc(C)n2-c1ccccc1

Row | melting point [°C] | SMILES
51 | 75.5 to 77.5 | COC(=O)c1cc(NC2CCCCC2)c2cc(Cc3ccc(F)cc3)cnc2c1O
52 | 183 to 189 | CN1C(=O)CC[C@]2(C)c3ccc(Sc4nc(-c5ccccc5)cc5ccccc45)cc3CC[C@@H]12
53 | 97 to 104 | C=C(C)c1ccc(C(F)(F)C(F)(F)c2ccccc2)cc1
54 | 90.5 to 92 | NCCCCCCCCOc1cccc2ccccc12
55 | 106 to 113 | CCCCc1nc2c(c(=O)[nH]1)CN(C(C)=O)CC2
56 | 132 to 133 | CCC(CC)Oc1cc(C)nc(Nc2c(C)cc(C)cc2C)c1C
57 | 227 to 228 | COc1cc(-c2cnc3[nH]cc(C(=O)C(=O)N(C)C)c3n2)cc(OC)c1OC
58 | 127 to 129 | COc1ccc(OC)c(-c2cccc(-n3cnc(-c4nc(C)no4)c3)c2)c1
59 | 249 | Cc1nc(N)nc(N)c1N=Nc1cccc(Cl)c1
60 | 232 to 234 | COc1ccc(C(=O)O)c(-c2ccc(C(F)(F)F)cc2)c1
61 | 62 to 63.5 | Oc1cc2cc(C3CCCC3)sc2c(Cl)c1Cl
62 | 126 to 128 | CC(C)(C)OC(=O)N[C@@H]1C[C@H](CO)[C@@H](O)C1
63 | 162 to 163 | CCONC(=O)c1cc(-c2ncc(C(F)(F)F)cc2Cl)ccc1Cl
64 | 177 to 178 | COC(=O)[C@H](CS)NC(=O)[C@@H]1CCC(=S)N1
65 | 216 | Cc1cc(NC(=O)c2c(C(F)(F)F)nc3c(C(F)(F)F)cccc3c2O)no1
66 | 185 to 186 | COc1ccnc(CCc2nc3cc(-c4ccc(OC)c(OC)c4)cnc3[nH]2)c1
67 | 111 to 116 | CCCCCN(CCC12CC3CC(CC(C3)C1)C2)C(=O)NCC(Cc1ccccc1)Cc1ccncc1 (stereo unspecified)
68 | 87 to 88 | CC(C)CCN1C(=O)C2(COc3cc(O)c(C(=O)C(F)(F)F)cc32)c2ccccc21 (stereo unspecified)
69 | 170 to 172 | Cc1ccc2c(c1C)OCC(NNc1ncnc3c1ncn3C1OC(CO)C(O)C1O)C2 (stereo unspecified)
70 | 221 to 222 | O=C(O)/C=C/c1ccc(N2CCC3(CC2)OCCO3)cc1
71 | 262 to 264 | CC(C)c1ccc(-c2nccc(-c3ccc(C(=O)O)cc3)n2)cc1
72 | 120 to 121 | Cn1nc2c(oc3ccccc32)c1NCC(F)(F)F
73 | 103 to 105 | c1ccc(N2CCN(Cc3coc4ccccc34)CC2)cc1
74 | 74 to 75 | CCOC(=O)CC(=O)N=C(SC)N(C)N=Cc1ccccc1
75 | 47 to 48 | CCC1=C(O)C(=O)CO1

Row | melting point [°C] | SMILES
76 | 265 to 267 | Oc1cc(Br)c2oc(-c3ccc(O)c(F)c3)nc2c1
77 | 215 | CC(=O)Nc1ccc(C(=O)c2ccncc2)cc1
78 | 185 to 186 | Cn1nnnc1C(C=O)=C(c1ccccc1)c1ccccc1
79 | 90 to 92 | CC#CCOc1ccc(C=O)cc1OC
80 | 82.1 | CCC(C#N)(COc1ccc(Cl)cc1)c1cccnc1 (stereo unspecified)
81 | 137 to 139 | N#CN=C(Nc1cccnc1)NC(NC(=O)c1ccc(Cl)cc1)C1CC1 (stereo unspecified)
82 | 248 to 249 | CC(C)NC(=O)Cn1c(-c2ccc(Cl)cc2)nc2cccnc21
83 | 88 to 89 | CN(C)C1CCc2oc3ccc([N+](=O)[O-])cc3c2C1 (stereo unspecified)
84 | 163 | CCCc1cc(C(=O)O)ccc1OCc1ccccc1
85 | 178 | CC(=O)Nc1ccc2c(c1)N1CCCN=C1S2
86 | 187 to 190 | CCOC(=O)c1[nH]c2c(O)cccc2c1C
87 | 198 to 200 | O=C(NCC1Cc2cccc(-c3c(Cl)cccc3Cl)c2O1)OCc1ccccc1 (stereo unspecified)
88 | 118 to 119 | CC1(C)CC(n2ccc(-c3ccc(F)cc3)c2-c2ccncc2)CC(C)(C)N1
89 | 269 to 271 | O=C(NCc1ccc(Cl)cc1)c1n[nH]c2ccccc2c1=O
90 | 172 to 175 | COc1ccc(C2(CC(=O)O)CNC(=O)C2)cc1 (stereo unspecified)
91 | 204 to 206 | CCOC(=O)C1=C(C)NC(C#N)=C(C(=O)OCC)C1c1cc([N+](=O)[O-])ccc1Cl (stereo unspecified)
92 | 72 | Nc1ccc(C(=O)CCCCOCc2ccccc2)cc1
93 | > 250 | Cn1cc(C(N)=O)c(Nc2ccc(Cl)c(Cl)c2)cc1=O
94 | 66 to 68 | CC(C)Oc1cc(F)nc(N)n1
95 | 140 to 142 | O=C1c2ccccc2C(=O)N1Cc1ccc(I)cc1Cl
96 | 123 to 124 | CCOc1cc(Oc2cc(C)[nH]n2)ccc1[N+](=O)[O-]
97 | 119 to 120 | N#Cc1cccc(Br)c1N
98 | 149 to 152 | CCNc1nc(CC)c(C(=O)c2ccc(Cl)c([N+](=O)[O-])c2)s1

Row | SMILES | melting point [°C]
99 | CS(=O)(=O)CS(=O)(=O)Cl | 109 to 111
100 | CC(Cc1ccc(C2=NNC(=O)CC2)cc1)NCC(O)c1cccc(Cl)c1 (stereo unspecified) | 49 to 50
101 | COCCN(C)c1c(S(=O)(=O)C(F)(F)F)c(C#N)nn1-c1c(Cl)cc(C(F)(F)F)cc1Cl | 75
102 | O=C1C=C(NC(=O)C(=O)c2cn(Cc3ccc([N+](=O)[O-])cc3)c3ccccc23)CO1 | 275 to 277
103 | CC(=O)OC1CCC2C3CCC4=CC(=O)C(I)CC4(C)C3CCC12C (stereo unspecified) | 92
104 | CCCCc1c(C(=O)c2ccc(O)cc2)c2cc([N+](=O)[O-])ccc2n1C | 198
105 | CC(=O)OCCN1C(=O)CN2CCOC2(c2ccccc2F)c2cc(Cl)ccc21 (stereo unspecified) | 120 to 123
106 | O=C1NC(=O)C(c2ccc(F)cc2)(c2ccc(F)cc2)C(=O)N1 | 315 to 318
